Assay results from patent publication US9562085B2, “Antimicrobial peptide” (priority 2013, dated 2017).
Non-standard residues stand in square brackets, D forms with d. Residues, ends and D or L forms follow the SMILES beside them. *: point of attachment. X2 = NC(=O)OCCOCCOCCOCCOCCOCCOCCOCCOCCOCCOCCN*; Ahx = NCCCCCC(=O)O

Test system: S. aureus JAR
Type: cell-based
Settings: JAR, 2 h
Description: S. aureus JAR is described in Campoccia et al. (Int. J. Artif. Organs, 2008 September; 31(9):841-7).
For the in vitro killing assay with P10 variants, S. aureus JAR ([…] CFU/ml) were incubated for 2 hours at 37° C. with various concentrations of the peptides in PBS or in PBS/human plasma (1/1, v/v). […] The LC99.9 is the average value of two independent experiments.

Compound	LC99.9 (μM) (50% plasma)	LC99.9 (μM) (PBS)
CC[C@H](C)[C@H](NC(=O)[C@H](CCCCN)NC(=O)[C@H](CCCCN)NC(=O)[C@H](Cc1ccc(O)cc1)NC(=O)[C@H](CCC(=O)O)NC(=O)[C@H](CCCNC(=N)N)NC(=O)[C@H](C)NC(=O)[C@H](CC(C)C)NC(C)=O)C(=O)N[C@H](C(=O)N[C@@H](CCC(=O)O)C(=O)N[C@@H](CCCCN)C(=O)N[C@@H](CC(C)C)C(=O)N[C@@H](CCCCN)C(=O)N[C@@H](CCCNC(=N)N)C(=O)N[C@@H](Cc1c[nH]c2ccccc12)C(=O)N[C@@H](CC(C)C)C(=O)N[C@@H](CCCNC(=N)N)C(=O)N[C@@H](CCC(N)=O)C(=O)N[C@H](C(=O)N[C@H](CC(C)C)C(=O)N[C@@H](CCCNC(=N)N)C(=O)N[C@H](C(=O)N[C@@H](CC(C)C)C(=O)N[C@@H](CCCNC(=N)N)C(N)=O)[C@@H](C)O)C(C)C)C(C)C [Peptide 1301-20, JLAREYKKIVEKLKRWLRQVlRTLRB] (Ac-LAREYKKIVEKLKRWLRQV[dL]RTLR-NH2)	38.4 µM	0.6 µM
CC[C@H](C)[C@H](NC(=O)[C@H](CCCCN)NC(=O)[C@H](CCCCN)NC(=O)[C@H](Cc1ccc(O)cc1)NC(=O)[C@H](CCC(=O)O)NC(=O)[C@H](CCCNC(=N)N)NC(=O)[C@H](C)NC(=O)[C@H](CC(C)C)NC(C)=O)C(=O)N[C@H](C(=O)N[C@@H](CCC(=O)O)C(=O)N[C@@H](CCCCN)C(=O)N[C@@H](CC(C)C)C(=O)N[C@@H](CCCCN)C(=O)N[C@@H](CCCNC(=N)N)C(=O)N[C@@H](Cc1c[nH]c2ccccc12)C(=O)N[C@@H](CC(C)C)C(=O)N[C@@H](CCCNC(=N)N)C(=O)N[C@@H](CCC(N)=O)C(=O)N[C@H](C(=O)N[C@@H](CC(C)C)C(=O)N[C@H](CCCNC(=N)N)C(=O)N[C@H](C(=O)N[C@@H](CC(C)C)C(=O)N[C@@H](CCCNC(=N)N)C(N)=O)[C@@H](C)O)C(C)C)C(C)C [Peptide 1301-21, JLAREYKKIVEKLKRWLRQVLrTLRB] (Ac-LAREYKKIVEKLKRWLRQVL[dR]TLR-NH2)	38.4 µM	0.6 µM
CC[C@H](C)[C@H](NC(=O)[C@H](CCCCN)NC(=O)[C@H](CCCCN)NC(=O)[C@H](Cc1ccc(O)cc1)NC(=O)[C@H](CCC(=O)O)NC(=O)[C@H](CCCNC(=N)N)NC(=O)[C@H](C)NC(=O)[C@H](CC(C)C)NC(C)=O)C(=O)N[C@H](C(=O)N[C@@H](CCC(=O)O)C(=O)N[C@@H](CCCCN)C(=O)N[C@@H](CC(C)C)C(=O)N[C@@H](CCCCN)C(=O)N[C@@H](CCCNC(=N)N)C(=O)N[C@@H](Cc1c[nH]c2ccccc12)C(=O)N[C@@H](CC(C)C)C(=O)N[C@@H](CCCNC(=N)N)C(=O)N[C@@H](CCC(N)=O)C(=O)N[C@H](C(=O)N[C@@H](CC(C)C)C(=O)N[C@@H](CCCNC(=N)N)C(=O)N[C@@H](C(=O)N[C@@H](CC(C)C)C(=O)N[C@@H](CCCNC(=N)N)C(N)=O)[C@H](C)O)C(C)C)C(C)C [Peptide 1301-22, JLAREYKKIVEKLKRWLRQVLRtLRB] (Ac-LAREYKKIVEKLKRWLRQVLR[dT]LR-NH2)	38.4 µM	0.6 µM
CC[C@H](C)[C@H](NC(=O)[C@H](CCCCN)NC(=O)[C@H](CCCCN)NC(=O)[C@H](Cc1ccc(O)cc1)NC(=O)[C@H](CCC(=O)O)NC(=O)[C@H](CCCNC(=N)N)NC(=O)[C@H](C)NC(=O)[C@H](CC(C)C)NC(C)=O)C(=O)N[C@H](C(=O)N[C@@H](CCC(=O)O)C(=O)N[C@@H](CCCCN)C(=O)N[C@@H](CC(C)C)C(=O)N[C@@H](CCCCN)C(=O)N[C@@H](CCCNC(=N)N)C(=O)N[C@@H](Cc1c[nH]c2ccccc12)C(=O)N[C@@H](CC(C)C)C(=O)N[C@@H](CCCNC(=N)N)C(=O)N[C@@H](CCC(N)=O)C(=O)N[C@H](C(=O)N[C@@H](CC(C)C)C(=O)N[C@@H](CCCNC(=N)N)C(=O)N[C@H](C(=O)N[C@H](CC(C)C)C(=O)N[C@@H](CCCNC(=N)N)C(N)=O)[C@@H](C)O)C(C)C)C(C)C [Peptide 1301-23, JLAREYKKIVEKLKRWLRQVLRTlRB] (Ac-LAREYKKIVEKLKRWLRQVLRT[dL]R-NH2)	32.0 µM	0.4 µM
CC[C@H](C)[C@H](NC(=O)[C@H](CCCCN)NC(=O)[C@H](CCCCN)NC(=O)[C@H](Cc1ccc(O)cc1)NC(=O)[C@H](CCC(=O)O)NC(=O)[C@H](CCCNC(=N)N)NC(=O)[C@H](C)NC(=O)[C@H](CC(C)C)NC(C)=O)C(=O)N[C@H](C(=O)N[C@@H](CCC(=O)O)C(=O)N[C@@H](CCCCN)C(=O)N[C@@H](CC(C)C)C(=O)N[C@@H](CCCCN)C(=O)N[C@@H](CCCNC(=N)N)C(=O)N[C@@H](Cc1c[nH]c2ccccc12)C(=O)N[C@@H](CC(C)C)C(=O)N[C@@H](CCCNC(=N)N)C(=O)N[C@@H](CCC(N)=O)C(=O)N[C@H](C(=O)N[C@@H](CC(C)C)C(=O)N[C@@H](CCCNC(=N)N)C(=O)N[C@H](C(=O)N[C@@H](CC(C)C)C(=O)N[C@H](CCCNC(=N)N)C(N)=O)[C@@H](C)O)C(C)C)C(C)C [Peptide 1301-24, JLAREYKKIVEKLKRWLRQVLRTLrB] (Ac-LAREYKKIVEKLKRWLRQVLRTL[dR]-NH2)	19.2 µM	0.6 µM
CC[C@H](C)[C@H](NC(=O)[C@H](CCCCN)NC(=O)[C@H](CCCCN)NC(=O)[C@H](Cc1ccc(O)cc1)NC(=O)[C@H](CCC(=O)O)NC(=O)[C@H](CCCNC(=N)N)NC(=O)[C@H](C)NC(=O)[C@H](CC(C)C)NC(C)=O)C(=O)N[C@H](C(=O)N[C@@H](CCC(=O)O)C(=O)N[C@@H](CCCCN)C(=O)N[C@@H](CC(C)C)C(=O)N[C@@H](CCCCN)C(=O)N[C@@H](CCCNC(=N)N)C(=O)N[C@@H](Cc1c[nH]c2ccccc12)C(=O)N[C@@H](CC(C)C)C(=O)N[C@@H](CCCNC(=N)N)C(=O)N[C@@H](CCC(N)=O)C(=O)N[C@H](C(=O)N[C@@H](CC(C)C)C(=O)N[C@@H](CCCNC(=N)N)C(=O)N[C@H](C(=O)N[C@@H](CC(C)C)C(=O)N[C@@H](CCCNC(=N)N)C(=O)NCCCCCC(=O)NCCCCCC(N)=O)[C@@H](C)O)C(C)C)C(C)C [Peptide 1302-4, JLAREYKKIVEKLKRWLRQVLRTLRZZB] (Ac-LAREYKKIVEKLKRWLRQVLRTLR[Ahx][Ahx]-NH2)	38.4 µM	0.8 µM
CC[C@H](C)[C@H](NC(=O)[C@H](CCCCN)NC(=O)[C@H](CCCCN)NC(=O)[C@H](Cc1ccc(O)cc1)NC(=O)[C@H](CCC(=O)O)NC(=O)[C@H](CCCNC(=N)N)NC(=O)[C@H](C)NC(=O)[C@H](CC(C)C)NC(C)=O)C(=O)N[C@H](C(=O)N[C@@H](CCC(=O)O)C(=O)N[C@@H](CCCCN)C(=O)N[C@@H](CC(C)C)C(=O)N[C@@H](CCCCN)C(=O)N[C@@H](CCCNC(=N)N)C(=O)N[C@@H](Cc1c[nH]c2ccccc12)C(=O)N[C@@H](CC(C)C)C(=O)N[C@@H](CCCNC(=N)N)C(=O)N[C@@H](CCC(N)=O)C(=O)N[C@H](C(=O)N[C@@H](CC(C)C)C(=O)N[C@@H](CCCNC(=N)N)C(=O)N[C@H](C(=O)N[C@@H](CC(C)C)C(=O)N[C@@H](CCCNC(=N)N)C(=O)NCCOCCOCCOCCOCCOCCOCCOCCOCCOCCOCCOC(N)=O)[C@@H](C)O)C(C)C)C(C)C [Peptide 1302-5, JLAREYKKIVEKLKRWLRQVLRTLRoB] (Ac-LAREYKKIVEKLKRWLRQVLRTLR-X2)	102.4 µM	0.8 µM
